Source: US5541187A, “6-heterocycyclyl pyrazolo[3,4-d]pyrimidin-4-ones and compositions and method of use thereof” (Sterling Winthrop Inc., priority 1993, dated 1996)
Values joined by “and” are separate entries in the source; they are usually repeats but may differ in a detail not shown here. Equal values may be shown once.

System: cGMP-PDE I
Assay: cGMP-PDE I inhibitory activity (cyclic nucleotide hydrolysis, isolated PDE isozyme)
Format: biochemical, various animal species and man
Conditions: for IC50: values marked * are from two separate experimental runs
Method: Multiple isozymic forms of cyclic nucleotide phosphodiesterase (PDE) have been identified in mammalian cells. […] Elevation of intracellular cGMP in vascular smooth muscle triggers a cascade of events that leads to a reduction in muscle tone while elevations in renal tubule cell cGMP stimulates natriuresis and diuresis. Vascular smooth muscle and renal cells contain a phosphodiesterase isozyme that has a low Km (1 μM) for the hydrolysis of cGMP. This isozyme has been referred to as the cGMP-PDE or cGMP-PDE I since it elutes from an anion-exchange sepharose resin in the first peak of PDE activity at a sodium acetate concentration between 150-200 mM. Thus inhibition of the cGMP-PDE isozyme is a viable subcellular mechanism by which increases in cGMP can produce a reduction in total peripheral resistance and a stimulation of natriuresis and diuresis. The development of cGMP-PDE inhibitors represents an approach for the discovery of agents useful for treating heart failure and hypertension. For example, compounds having high inhibitory potency for the cGMP-PDE are expected to lower blood pressure and induce natriuresis and diuresis.
The cGMP-PDE and other PDE isozymes were isolated from cardiovascular tissues (heart and aorta) of various animal species and man by anion-exchange and affinity chromatography as described by Silver et al., Sec. Messeng. Phos. 13:13-25, 1991; PDE activity, in the presence and absence of test compounds was determined essentially as described by Thompson et al., Adv. Cyclic Nucleotide Res. 10:69-92. To determine the potency and selectivity of compounds as PDE inhibitors, compounds are screened for their effect on cyclic nucleotide hydrolysis at 10 μM. If ≥50% inhibition of PDE activity is observed, an IC50 value (concentration of compound causing 50% reduction in PDE activity) and corresponding 95% confidence intervals are generated. The IC50 values are calculated from concentration-response curves as described by Tallarida and Murray, Manual of Pharmacologic Calculations with Computer Programs, Procedure 8, Graded Dose-response, pp. 14-19, Springer-Verlag, N.Y., 1981.

| Compound | IC50 | Percent Inhibition cGMP-PDE I (0.1 μM) | Percent Inhibition cGMP-PDE I (1 μM) | Percent Inhibition cGMP-PDE I (10 μM) |
| --- | --- | --- | --- | --- |
| Cc1[nH]n(C2CCCC2C)c2nc(-c3ccncc3)nc(=O)c1-2 (stereo not drawn) [Example 1e, 1-(2-Methylcyclopentyl)-3-methyl-6-(4-pyridyl)pyrazolo [3,4-d]pyrimidin-4-one] |  | 23% | 59% |  |
| CCc1[nH]n(C2CCCC2)c2nc(-c3cccc(C)n3)nc(=O)c1-2 [Example 2f, 1-cyclopentyl-3-ethyl-6-(6-methyl-2-pyridyl) -pyrazolo-[3,4-d]pyrimidin-4-one] |  |  | 7% | 53% |
| Cc1nn(C2CCCCC2)c2nc(-c3ccncc3)[nH]c(=O)c12 [Example 3e, 1-Cyclohexyl-3-methyl-6-(4-pyridyl)-pyrazolo[3,4-d]pyimidin-4-one] | 460 nM and 560 nM |  |  |  |
| CCc1[nH]n(C2CCCC2)c2nc(C3CCNC4CCCCC43)nc(=O)c1-2 (stereo not drawn) [Example 8, 1-Cyclopentyl-3-ethyl-6-(perhydro-4-quinolinyl)-pyrazolo[3,4-d]pyrimidin-4-one] |  |  | 31% | 67% |
| CCc1nn(C2CCCC2)c2nc(C3CCN(C)c4ccccc43)[nH]c(=O)c12 (stereo not drawn) [Example 10b, 1-cyclopentyl-3-ethyl-6-(1,2,3,4-tetrahydro-4-N-methyl-quinolinyl)-pyrazolo-[3,4-d]pyrimidin-4-one] |  | 24% | 62% |  |
| O=c1nc(-c2ccncc2)nc2n(C3CCCC3)[nH]c(Cc3ccccc3)c1-2 [Example 15e, 1-Cyclopentyl-3-phenylmethyl-6-(4-pyridyl)-pyrazolo[3,4-d]pyrimidin-4-one] |  |  | 38% | 43% |
| Cc1nn(C2CCS(=O)(=O)C2)c2nc(-c3ccncc3)[nH]c(=O)c12 (stereo not drawn) [Example 18c, 1-(3-Tetrahydrothienyl-1,1-dioxide)-3-methyl-6-(4-pyridyl)pyrazolo[3,4-d]pyrimidin-4-one methanesulfonate] |  |  | 0% | 45% |
| CSc1[nH]n(C2CCCC2)c2nc(-c3ccncc3)nc(=O)c1-2 [Example 19c, 1-Cyclopentyl-3-methylthio-6-(4-pyridyl)pyrazolo[3,4-d]pyrimidin-4-one] |  |  | 32% | 74% |

More lines, main results first:

| IC50 | Compound | Percent Inhibition cGMP-PDE I (0.1 μM) | Percent Inhibition cGMP-PDE I (1 μM) | Percent Inhibition cGMP-PDE I (10 μM) |
| --- | --- | --- | --- | --- |
| 260 nM | CC(C)(C)n1[nH]c(CC2CCCCC2)c2c(=O)nc(-c3ccncc3)nc1-2 [Example 5e, 1-tert-Butyl-3-(cyclohexylmethyl)-6-(4-pyridyl)-pyrazolo[3,4-d]pyrimidin-4-one] |  |  |  |
| 620 nM | CC(C)(C)n1[nH]c(Nc2ccccc2)c2c(=O)nc(-c3ccncc3)nc1-2 [Example 6e, 1-tert-Butyl-3-phenylamino-6-(4-pyridyl)-pyrazolo[3,4-d]-pyrimidin-4-one] |  |  |  |
| 190 nM | CCc1[nH]n(C2CCCC2)c2nc(-c3ccnc4ccccc34)nc(=O)c1-2 [Example 7c, 1-Cyclopentyl-3-ethyl-6-(4-quinolinyl)-pyrazolo[3,4-d]pyrimidin-4-one] |  |  |  |
| 280 nM | CCc1[nH]n(C2CCCC2)c2nc(C3CCNc4ccccc43)nc(=O)c1-2 (stereo not drawn) [Example 9, 1-Cyclopentyl-3-ethyl-6-(1,2,3,4-tetrahydro-4-quinolinyl)-pyrazolo[3,4-d]pyrimidin-4-one] |  |  |  |
| 690 nM | Cc1[nH]n(C2CCCC2)c2nc(-c3cccc4cccnc34)nc(=O)c1-2 [Example 12c, 1-Cyclopentyl-3-methyl-6-(8-quinolinyl)-pyrazolo-[3,4-d]pyrimidin-4-one] |  |  |  |
| 780 nM | CCc1[nH]n(C2CCCC2)c2nc(-c3ccc4nccn4c3)nc(=O)c1-2 [Example 16c, 1-Cyclopentyl-3-ethyl-6-(6-imidazo[1,2-a]pyridinyl)pyrazolo[3,4-d]pyrimidin-4-one] | 35% | 69% |  |
| 2300 nM | Cc1nn(C2CCCC2O)c2nc(-c3ccncc3)[nH]c(=O)c12 (stereo not drawn) [Example 17e] |  |  |  |
